Tests used:
CFTR = biological target: T1, CFTR (Homo sapiens, UniProt P13569, DEL508-508); experiment: TECC24 recording of CFTR-mediated transepithelial chloride transport in ΔF508 homozygous CF-HBE cells; assay type: cell-based; settings: 10 μM test agent, 48 hours incubation, AUC of forskolin-stimulated IEQ divided by vehicle AUC, primary CF-HBE cells
T1 construct: Primary human bronchial epithelial cells from a ΔF508 homozygous CF donor; host or cells: primary human bronchial epithelial cells (CF-HBE), ΔF508 homozygous donor
T1 sequence (P13569 with tags, fused parts or gaps DEL508-508): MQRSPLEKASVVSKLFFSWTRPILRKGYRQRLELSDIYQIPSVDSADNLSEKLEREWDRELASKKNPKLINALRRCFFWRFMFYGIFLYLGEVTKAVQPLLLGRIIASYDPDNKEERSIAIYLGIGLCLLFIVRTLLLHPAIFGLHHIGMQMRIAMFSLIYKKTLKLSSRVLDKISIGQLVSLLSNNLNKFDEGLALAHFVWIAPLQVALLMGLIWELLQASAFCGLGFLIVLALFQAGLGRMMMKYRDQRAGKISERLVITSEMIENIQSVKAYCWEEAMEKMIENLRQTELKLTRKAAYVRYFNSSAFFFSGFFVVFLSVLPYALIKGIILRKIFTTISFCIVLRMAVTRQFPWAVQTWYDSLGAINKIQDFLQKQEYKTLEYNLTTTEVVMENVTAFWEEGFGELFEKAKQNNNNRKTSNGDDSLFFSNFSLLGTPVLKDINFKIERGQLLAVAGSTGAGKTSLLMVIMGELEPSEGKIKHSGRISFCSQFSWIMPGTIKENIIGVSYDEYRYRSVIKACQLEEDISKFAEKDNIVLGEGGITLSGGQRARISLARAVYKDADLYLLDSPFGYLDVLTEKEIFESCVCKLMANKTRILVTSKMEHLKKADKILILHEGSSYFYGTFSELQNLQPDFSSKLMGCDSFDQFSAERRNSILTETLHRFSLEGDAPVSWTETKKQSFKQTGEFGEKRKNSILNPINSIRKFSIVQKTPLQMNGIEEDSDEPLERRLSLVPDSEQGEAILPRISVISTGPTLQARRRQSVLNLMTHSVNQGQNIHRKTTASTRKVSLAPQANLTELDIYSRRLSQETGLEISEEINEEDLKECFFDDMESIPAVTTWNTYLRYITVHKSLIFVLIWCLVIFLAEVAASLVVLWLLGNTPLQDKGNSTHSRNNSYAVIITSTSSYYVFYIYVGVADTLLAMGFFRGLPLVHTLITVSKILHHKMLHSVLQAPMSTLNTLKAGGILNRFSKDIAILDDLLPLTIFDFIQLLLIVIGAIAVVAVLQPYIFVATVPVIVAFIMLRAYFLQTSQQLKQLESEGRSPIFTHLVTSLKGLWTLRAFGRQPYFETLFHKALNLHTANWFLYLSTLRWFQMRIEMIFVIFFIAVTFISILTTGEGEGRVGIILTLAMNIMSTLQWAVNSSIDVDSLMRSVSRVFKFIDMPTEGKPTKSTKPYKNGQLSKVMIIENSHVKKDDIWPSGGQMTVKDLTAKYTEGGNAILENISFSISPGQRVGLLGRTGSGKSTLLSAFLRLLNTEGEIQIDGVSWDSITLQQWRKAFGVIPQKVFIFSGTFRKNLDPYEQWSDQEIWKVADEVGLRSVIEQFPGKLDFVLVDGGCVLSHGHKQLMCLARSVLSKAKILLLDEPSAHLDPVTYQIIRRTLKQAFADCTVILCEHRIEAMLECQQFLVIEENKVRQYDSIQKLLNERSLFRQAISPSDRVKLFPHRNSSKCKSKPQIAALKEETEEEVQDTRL
Outline: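 ΔF508 homozygous primary bronchial epithelia exposed to compound 48 h at 36.5 °C, then transepithelial voltage and resistance recorded in pH 7.4 buffer with benzamil (10 μM), forskolin (10 μM) stimulation and CFTRinh-172 (20 μM) stop. Equivalent Cl⁻ current AUC vs vehicle gives efficacy; EC50 fitted with Hill slope fixed at 1.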

NBD1/3D = experiment: Aggregation analysis using differential static light scattering (DSLS), NBD1 thermal stability; assay type: binding, Human; settings: ΔTagg versus DMSO control; compound at 100 μM
Outline: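 Thermal stabilisation reported as ΔTagg, i.e. aggregation temperature relative to averaged DMSO wells. Tagg came from the inflection of differential static light scattering imaged 25–70 °C while NBD1 (0.2 mg/ml, Tris pH 7.6 buffer containing ATP, MgCl2, DTT, glycerol) was ramped 1 °C/min.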

| TECC24 @ 10 μM over DMSO (AUC fold over DMSO) (CFTR) | Compound | DSLS NBD1/3D Human Stability delta-T (° C.) @ 100 (μM) (NBD1/3D) |
| --- | --- | --- |
| C (“C” refers to AUC @ 10 uM <= 4) | O=C(O)CCc1cccc(C(O)(c2cnc(-c3cc(Oc4c(F)cc5[nH]ccc5c4F)ccc3F)[nH]2)C(F)(F)F)c1 (centres unmarked) [Example 273, 3-(3-(1-(2-(5-((4,6-difluoro-1H-indol-5-yl)oxy)-2-fluorophenyl)-1H-imidazol-5-yl)-2,2,2-trifluoro-1-hydroxyethyl)phenyl)propanoic acid] | B (B: 5-10° C.) |
| A (“A” refers to AUC @10 uM >= 12) | Cc1nc(-c2cc(Oc3c(F)cc4[nH]ccc4c3F)ccc2F)[nH]c1C(O)c1cccc(CCC(=O)O)c1F (single isomer, unassigned) [Example 180, 3-(3-((2-(5-((4,6-difluoro-1H-indol-5-yl)oxy)-2-fluorophenyl)-4-methyl-1H-imidazol-5-yl)(hydroxy)methyl)-2-fluorophenyl)propanoic acid] | A (A: T ≥ 10° C.) |
| A (“A” refers to AUC @10 uM >= 12) | CC(C)OCCOCCC(c1cnc(-c2cc(Oc3c(F)cc4[nH]ccc4c3F)ccc2F)[nH]1)c1cccc(CCC(=O)O)c1F (single isomer, unassigned) [Example 130B, 3-(3-(1-(2-(5-((4,6-difluoro-1H-indol-5-yl)oxy)-2-fluorophenyl)-1H-imidazol-5-yl)-3-(2-isopropoxyethoxy)propyl)-2-fluorophenyl)propanoic acid] | A (A: T ≥ 10° C.) |
| A (“A” refers to AUC @10 uM >= 12) | CO[C@]1(C)C[C@@](c2cc(F)cc(CCC(=O)O)c2)(c2cnc(-c3cc(Oc4c(F)c(F)c5[nH]ccc5c4S(C)(=O)=O)ccc3F)[nH]2)C1 [Example 74, 3-(3-((1r,3r)-1-(2-(5-((6,7-difluoro-4-(methylsulfonyl)-1H-indol-5-yl)oxy)-2-fluorophenyl)-1H-imidazol-5-yl)-3-methoxy-3-methylcyclobutyl)-5-fluorophenyl)propanoic acid] | A (A: T ≥ 10° C.) |
| C (“C” refers to AUC @ 10 uM <= 4) | CNC(=O)c1c(Oc2ccc(F)c(-c3ncc(Cc4cccc(CCC(=O)O)c4)[nH]3)c2)c(F)cc2[nH]ccc12 [Example 140, 3-(3-((2-(2-Fluoro-5-((6-fluoro-4-(methylcarbamoyl)-1H-indol-5-yl)oxy)phenyl)-1H-imidazol-5-yl)methyl)phenyl)propanoic acid] | B (B: 5-10° C.) |
| C (“C” refers to AUC @ 10 uM <= 4) | [2H]c1c[nH]c2c(F)c(F)c(Oc3ccc(F)c(-c4nc(C(C#N)(c5cc(F)cc(CCC(=O)O)c5)C([2H])([2H])[2H])c[nH]4)c3)c(F)c12 (single isomer, unassigned) [Example 67B, 3-(3-(1-cyano-1-(2-(2-fluoro-5-((4,6,7-trifluoro-1H-indol-5-yl-3-d)oxy)phenyl)-1H-imidazol-4-yl)ethyl-2,2,2-d3)-5-fluorophenyl)propanoic acid] | B (B: 5-10° C.) |
| A (“A” refers to AUC @10 uM >= 12) | CC(C)(C)C(c1cccc(CCC(=O)O)c1)c1cnc(-c2cc(Oc3c(F)cc4[nH]ccc4c3F)ccc2F)[nH]1 (centres unmarked) [Example 277, 3-(3-(1-(2-(5-((4,6-difluoro-1H-indol-5-yl)oxy)-2-fluorophenyl)-1H-imidazol-5-yl)-2,2-dimethylpropyl)phenyl)propanoic acid] | B (B: 5-10° C.) |

| Compound | TECC24 @ 10 μM over DMSO (AUC fold over DMSO) (CFTR) | DSLS NBD1/3D Human Stability delta-T (° C.) @ 100 (μM) (NBD1/3D) |
| --- | --- | --- |
| Cc1c(Oc2ccc(F)c(-c3ncc([C@H](C)c4cccc([C@@H]5C[C@H]5C(=O)O)c4F)[nH]3)c2)c(F)cc2[nH]ccc12 (single isomer, unassigned) [Example 139F, trans-2-(2-fluoro-3-(1-(2-(2-fluoro-5-((6-fluoro-4-methyl-1H-indol-5-yl)oxy)phenyl)-1H-imidazol-5-yl)ethyl)phenyl)cyclopropane-1-carboxylic acid] | B (“B” refers to AUC @10 uM between 4-12) | A (A: T ≥ 10° C.) |
| O=C(O)CCc1cc(F)cc(Cc2cnc(-c3cc(Oc4c(F)cc5[nH]ccc5c4F)ccc3F)[nH]2)c1F [Example 124, 3-(3-((2-(5-((4,6-difluoro-1H-indol-5-yl)oxy)-2-fluorophenyl)-1H-imidazol-5-yl)methyl)-2,5-difluorophenyl)propanoic acid] | B (“B” refers to AUC @10 uM between 4-12) | B (B: 5-10° C.) |
| O=C(O)CCc1cccc(Cc2c[nH]c(-c3cc(Oc4c(F)cc5[nH]ccc5c4F)ccc3F)n2)c1 [Example 118, 3-(3-((2-(5-((4,6-difluoro-1H-indol-5-yl)oxy)-2-fluorophenyl)-1H-imidazol-4-yl)methyl)phenyl)propanoic acid] | B (“B” refers to AUC @10 uM between 4-12) | B (B: 5-10° C.) |

Reference: US20240279220A1, “INDOLE COMPOUNDS AND METHODS OF USE” (Genzyme Corporation, priority 2021, published 2024)
